Test results taken from patent US20090029949A1, “GPCR Ligands Identified by Computational Modeling” (priority 2006, published 2009).

Experiments:
[1] = molecular target: T1, S1P1 mutant W6.48A (Homo sapiens, UniProt P21453, W269A); assay: [35S]GTPγS binding, S1P1 W6.48A; assay type: biochemical; conditions: S1P-induced, S1P1 W6.48A in RH7777 cells
T1 construct: expressed in transfected cells
Procedure: (§1) RH7777 and HEK-293 cells (ATCC, Manassas, Va.) were maintained in Dulbecco's modified minimal essential medium (DMEM) containing 10% fetal bovine serum (Hyclone, Logan, Utah). Cells (2×10^6) were transfected with 2 μg of plasmid DNA with Effectene (Qiagen, Valencia, Calif.) according to the manufacturer's instructions, for 24 h. Before ligand binding and receptor activation assays, the cells were washed twice with serum-free DMEM and serum-starved for at least 6 h.
(§2) S1P1 Receptor Activation Assays Receptor functional assays were performed in transiently transfected RH7777 cells by measuring S1P-activated [^35S]GTPγS binding as previously described (28).

[2] = molecular target: T2, S1P1 mutant L6.41G (Homo sapiens, UniProt P21453, L262G); assay: [35S]GTPγS binding, S1P1 L6.41G; assay type: biochemical; conditions: S1P-induced, S1P1 L6.41G in RH7777 cells; mutant not detected at the cell surface
T2 construct: expressed in transfected cells; host or cells: RH7777
Procedure: as §1, §2

[3] = molecular target: T3, S1P1 mutant V6.37T (Homo sapiens, UniProt P21453, V258T); assay: [35S]GTPγS binding, S1P1 V6.37T; assay type: biochemical; conditions: S1P-induced, S1P1 V6.37T in RH7777 cells
T3 construct: expressed in transfected cells; host or cells: RH7777 (transient, pcDNA3.1)
Procedure: as §1, §2

[4] = molecular target: T4, S1P1 mutant I5.41F (Homo sapiens, UniProt P21453, I203F); assay: [35S]GTPγS binding, S1P1 I5.41F; assay type: biochemical; conditions: S1P-induced, S1P1 I5.41F in RH7777 cells
T4 construct: expressed in transfected cells; host or cells: RH7777 (transient, pcDNA3.1)
Procedure: as §1, §2

[5] = molecular target: T5, S1P1 mutant M3.32K (Homo sapiens, UniProt P21453, M124K); assay: [35S]GTPγS binding, S1P1 M3.32K; assay type: biochemical; conditions: S1P-induced, S1P1 M3.32K in RH7777 cells
T5 construct: expressed in transfected cells; host or cells: RH7777
Procedure: as §1, §2

[6] = molecular target: T6, S1P1 mutant F5.48G (Homo sapiens, UniProt P21453, F210G); assay: [35S]GTPγS binding, S1P1 F5.48G; assay type: biochemical; conditions: S1P-induced, S1P1 F5.48G in RH7777 cells
T6 construct: expressed in transfected cells
Procedure: as §1, §2

[7] = molecular target: T7, S1P1 mutant L5.52A (Homo sapiens, UniProt P21453, L214A); assay: [35S]GTPγS binding, S1P1 L5.52A; assay type: biochemical; conditions: S1P-induced, S1P1 L5.52A in RH7777 cells
T7 construct: expressed in transfected cells; host or cells: RH7777
Procedure: as §1, §2

[8] = molecular target: T8, S1P1 mutant T5.49G (Homo sapiens, UniProt P21453, T211G); assay: [35S]GTPγS binding, S1P1 T5.49G; assay type: biochemical; conditions: S1P-induced, S1P1 T5.49G in RH7777 cells
T8 construct: expressed in transfected cells; host or cells: RH7777 (transient, pcDNA3.1)
Procedure: as §1, §2

[9] = molecular target: T9, S1P1 mutant L6.41E (Homo sapiens, UniProt P21453, L262E); assay: [35S]GTPγS binding, S1P1 L6.41E; assay type: biochemical; conditions: S1P-induced, S1P1 L6.41E in RH7777 cells
T9 construct: expressed in transfected cells; host or cells: RH7777
Procedure: as §1, §2

[10] = molecular target: WT S1P1 (Homo sapiens, UniProt P21453); conditions: WT receptor, inventors' system (ref 28); read-out: apparent KD for S1P binding; cited from earlier work
[11] = molecular target: T10, S1P1 mutant W6.48E (Homo sapiens, UniProt P21453, W269E); assay: [35S]GTPγS binding, S1P1 W6.48E; assay type: biochemical; conditions: S1P-induced, S1P1 W6.48E in RH7777 cells
T10 construct: expressed in transfected cells; host or cells: RH7777
Procedure: as §1, §2

[12] = molecular target: T11, S1P1 mutant V5.47T (Homo sapiens, UniProt P21453, V209T); assay: [35S]GTPγS binding, S1P1 V5.47T; assay type: biochemical; conditions: S1P-induced, S1P1 V5.47T in RH7777 cells
T11 construct: expressed in transfected cells; host or cells: RH7777
Procedure: as §1, §2

[13] = molecular target: T12, S1P1 mutant C5.44I (Homo sapiens, UniProt P21453, C206I); assay: [35S]GTPγS binding, S1P1 C5.44I; assay type: biochemical; conditions: S1P-induced, S1P1 C5.44I in RH7777 cells
T12 construct: expressed in transfected cells; host or cells: RH7777 (transient, pcDNA3.1)
Procedure: as §1, §2

[14] = molecular target: T13, S1P1 mutant L5.51G (Homo sapiens, UniProt P21453, L213G); assay: [35S]GTPγS binding, S1P1 L5.51G; assay type: biochemical; conditions: S1P-induced, S1P1 L5.51G in RH7777 cells
T13 construct: expressed in transfected cells; host or cells: RH7777 (transient, pcDNA3.1)
Procedure: as §1, §2

[15] = molecular target: T14, S1P1 mutant V3.40L (Homo sapiens, UniProt P21453, V132L); assay: [35S]GTPγS binding, S1P1 V3.40L; assay type: biochemical; conditions: S1P-induced, S1P1 V3.40L in RH7777 cells
T14 construct: expressed in transfected cells; host or cells: RH7777 (transient, pcDNA3.1)
Procedure: as §1, §2

[16] = molecular target: T15, S1P1 mutant V6.40L (Homo sapiens, UniProt P21453, V261L); assay: [35S]GTPγS binding, S1P1 V6.40L; assay type: biochemical; conditions: S1P-induced, S1P1 V6.40L in RH7777 cells
T15 construct: expressed in transfected cells; host or cells: RH7777
Procedure: as §1, §2

[17] = molecular target: T16, S1P1 mutant T5.45G (Homo sapiens, UniProt P21453, T207G); assay: [35S]GTPγS binding, S1P1 T5.45G; assay type: biochemical; conditions: S1P-induced, S1P1 T5.45G in RH7777 cells
T16 construct: expressed in transfected cells; host or cells: RH7777 (transient, pcDNA3.1)
Procedure: as §1, §2

[18] = molecular target: S1P1 mutant V6.40A (Homo sapiens, UniProt P21453, V261A); assay: [35S]GTPγS binding, S1P1 V6.40A; assay type: biochemical; parameters: expressed in transfected cells; host or cells: RH7777 (GTPγS); conditions: S1P-induced, S1P1 V6.40A in RH7777 cells
Procedure: as §1, §2

[19] = molecular target: T17, S1P1 double mutant L3.43, 3.44E (Homo sapiens, UniProt P21453, L135E/L136E); assay: [35S]GTPγS binding, S1P1 L3.43, 3.44E; assay type: biochemical; conditions: S1P-induced, S1P1 L3.43, 3.44E in RH7777 cells
T17 construct: expressed in transfected cells; host or cells: RH7777
Procedure: as §1, §2

[20] = molecular target: T18, S1P1 mutant T5.45S (Homo sapiens, UniProt P21453, T207S); assay: [35S]GTPγS binding, S1P1 T5.45S; assay type: biochemical; conditions: S1P-induced, S1P1 T5.45S in RH7777 cells
T18 construct: expressed in transfected cells; host or cells: RH7777 (transient, pcDNA3.1)
Procedure: as §1, §2

Chain of S1P1 mutant V6.40A (P21453 whole entry V261A): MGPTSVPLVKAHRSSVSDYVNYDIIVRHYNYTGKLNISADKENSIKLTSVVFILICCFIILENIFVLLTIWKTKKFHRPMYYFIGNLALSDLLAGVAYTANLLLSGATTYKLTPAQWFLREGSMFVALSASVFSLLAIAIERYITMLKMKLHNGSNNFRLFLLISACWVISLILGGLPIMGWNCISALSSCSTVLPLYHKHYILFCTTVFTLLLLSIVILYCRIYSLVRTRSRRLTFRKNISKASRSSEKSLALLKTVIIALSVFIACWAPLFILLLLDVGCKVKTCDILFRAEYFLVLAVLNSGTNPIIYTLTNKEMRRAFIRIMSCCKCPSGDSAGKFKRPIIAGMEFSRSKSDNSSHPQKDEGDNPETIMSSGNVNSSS
T3 sequence (P21453 whole entry V258T): as the sequence (P21453 whole entry V261A) above, with V258T, A261V counted along it
T18 sequence (P21453 whole entry T207S): as the sequence (P21453 whole entry V261A) above, with T207S, A261V counted along it
T17 sequence (P21453 whole entry L135E/L136E): as the sequence (P21453 whole entry V261A) above, with L135E, L136E, A261V counted along it
T15 sequence (P21453 whole entry V261L): as the sequence (P21453 whole entry V261A) above, with A261L counted along it
T8 sequence (P21453 whole entry T211G): as the sequence (P21453 whole entry V261A) above, with T211G, A261V counted along it
T4 sequence (P21453 whole entry I203F): as the sequence (P21453 whole entry V261A) above, with I203F, A261V counted along it
T16 sequence (P21453 whole entry T207G): as the sequence (P21453 whole entry V261A) above, with T207G, A261V counted along it
T11 sequence (P21453 whole entry V209T): as the sequence (P21453 whole entry V261A) above, with V209T, A261V counted along it
T6 sequence (P21453 whole entry F210G): as the sequence (P21453 whole entry V261A) above, with F210G, A261V counted along it
T13 sequence (P21453 whole entry L213G): as the sequence (P21453 whole entry V261A) above, with L213G, A261V counted along it
T2 sequence (P21453 whole entry L262G): as the sequence (P21453 whole entry V261A) above, with A261V, L262G counted along it
T12 sequence (P21453 whole entry C206I): as the sequence (P21453 whole entry V261A) above, with C206I, A261V counted along it
T14 sequence (P21453 whole entry V132L): as the sequence (P21453 whole entry V261A) above, with V132L, A261V counted along it
T9 sequence (P21453 whole entry L262E): as the sequence (P21453 whole entry V261A) above, with A261V, L262E counted along it
T7 sequence (P21453 whole entry L214A): as the sequence (P21453 whole entry V261A) above, with L214A, A261V counted along it
T5 sequence (P21453 whole entry M124K): as the sequence (P21453 whole entry V261A) above, with M124K, A261V counted along it
T10 sequence (P21453 whole entry W269E): as the sequence (P21453 whole entry V261A) above, with A261V, W269E counted along it
T1 sequence (P21453 whole entry W269A): as the sequence (P21453 whole entry V261A) above, with A261V, W269A counted along it
Chain of WT S1P1 (P21453 whole entry): as the sequence (P21453 whole entry V261A) above, with A261V counted along it

CCCCCCCCCCCCC/C=C/[C@@H](O)[C@@H](N)COP(=O)(O)O [S1P, Sphingosine 1-phosphate]
EC50 [1]: 13 ± 4.2 nM | Emax ([1]; read-out: % WT Emax + s.d.): 34 ± 1.5% | % WT Emax + s.d. [2]: ∞ | EC50 + s.d. [2]: ∞ | EC50 [3]: 13 nM | Emax ([3]; read-out: % WT Emax + s.d.): 181% | EC50 [4]: 18.9 nM | Emax ([4]; read-out: % WT Emax + s.d.): 27% | % WT Emax + s.d. [5]: ∞ | EC50 + s.d. [5]: ∞ | % WT Emax + s.d. [6]: ∞ | EC50 + s.d. [6]: ∞ | % WT Emax + s.d. [7]: ∞ | EC50 + s.d. [7]: ∞ | EC50 [8]: 5.4 nM | Emax ([8]; read-out: % WT Emax + s.d.): 107% | EC50 [9]: 4.1 ± 0.63 nM | Emax ([9]; read-out: % WT Emax + s.d.): 59% | Kd [10]: 36 ± 2 nM | % WT Emax + s.d. [11]: ∞ | EC50 + s.d. [11]: ∞ | EC50 [12]: 89 nM | Emax ([12]; read-out: % WT Emax + s.d.): 100% | EC50 [13]: 20.4 ± 2.1 nM | Emax ([13]; read-out: % WT Emax + s.d.): 37% | EC50 [14]: 2.6 ± 2.1 nM | Emax ([14]; read-out: % WT Emax + s.d.): 46% | EC50 [15]: 7 ± 4.5 nM | Emax ([15]; read-out: % WT Emax + s.d.): 55% | % WT Emax + s.d. [16]: ∞ | EC50 + s.d. [16]: ∞ | EC50 [17]: 30.9 nM | Emax ([17]; read-out: % WT Emax + s.d.): 96% | EC50 [18]: 14.8 nM | Emax ([18]; read-out: % WT Emax + s.d.): 69% | % WT Emax + s.d. [19]: ∞ | EC50 + s.d. [19]: ∞ | EC50 [20]: 7.9 nM | Emax ([20]; read-out: % WT Emax + s.d.): 28%
